Test results: PubChem BioAssay (NCI)
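GI50 marks 50% less growth. TGI denotes the concentration required for complete inhibition of growth.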

Legend:
Assay in all cases: growth of human tumour cells (NCI), 384-well format
MCF7 breast = system: MCF7 breast
PC-3 prostate = system: PC-3 prostate
SF-295 CNS = system: SF-295 CNS
SW-620 colon = system: SW-620 colon
SK-MEL-28 melanoma = system: SK-MEL-28 melanoma
UACC-257 melanoma = system: UACC-257 melanoma
HOP-62 NSCLC = system: HOP-62 NSCLC
M14 melanoma = system: M14 melanoma
SN12C renal = system: SN12C renal
SNB-75 CNS = system: SNB-75 CNS
NCI-H460 NSCLC = system: NCI-H460 NSCLC
RXF 393 renal = system: RXF 393 renal
COLO 205 colon = system: COLO 205 colon
SK-MEL-5 melanoma = system: SK-MEL-5 melanoma
HT29 colon = system: HT29 colon
SK-MEL-2 melanoma = system: SK-MEL-2 melanoma
MOLT-4 leukemia = system: MOLT-4 leukemia
SK-OV-3 ovarian = system: SK-OV-3 ovarian
HCC-2998 colon = system: HCC-2998 colon
786-0 renal = system: 786-0 renal
EKVX NSCLC = system: EKVX NSCLC
ACHN renal = system: ACHN renal
RPMI-8226 leukemia = system: RPMI-8226 leukemia
MALME-3M melanoma = system: MALME-3M melanoma
UACC-62 melanoma = system: UACC-62 melanoma
NCI-H322M lung = system: NCI-H322M lung
SF-268 CNS = system: SF-268 CNS
IGROV1 ovarian = system: IGROV1 ovarian
SF-539 CNS = system: SF-539 CNS
UO-31 renal = system: UO-31 renal
DU-145 prostate = system: DU-145 prostate
BT-549 breast = system: BT-549 breast
HL-60(TB) leukemia = system: HL-60(TB) leukemia
U251 glioblastoma = system: U251 glioblastoma
T-47D breast = system: T-47D breast
LOX IMVI melanoma = system: LOX IMVI melanoma
NCI/ADR-RES ovarian = system: NCI/ADR-RES ovarian
OVCAR-3 ovarian = system: OVCAR-3 ovarian
KM12 colon = system: KM12 colon
NCI-H226 lung = system: NCI-H226 lung
OVCAR-4 ovarian = system: OVCAR-4 ovarian
A498 renal = system: A498 renal
MDA-MB-231 breast = system: MDA-MB-231 breast
MDA-MB-435 melanoma = system: MDA-MB-435 melanoma
HCT-116 colon = system: HCT-116 colon
NCI-H522 lung = system: NCI-H522 lung
CCRF-CEM leukemia = system: CCRF-CEM leukemia

Question: For `O=S(=O)(c1ccc2c(c1)C(=NO)c1cc(S(=O)(=O)N3CCCCC3)ccc1-2)N1CCCCC1`, which GI50 (MCF7 breast) is on record?
Answer: 187 nM

Question: What about the TGI (MCF7 breast) of the same molecule?
Answer: 334 nM

Question: And the GI50 (PC-3 prostate)?
Answer: 165 nM

Question: And the TGI (PC-3 prostate)?
Answer: 303 nM

Question: And the GI50 (SF-295 CNS)?
Answer: 176 nM

Question: What about the TGI (SF-295 CNS) of the same molecule?
Answer: 316 nM

Question: What about the GI50 (SW-620 colon) of the same molecule?
Answer: 182 nM

Question: And the TGI (SW-620 colon)?
Answer: 323 nM

Question: What about the GI50 (SK-MEL-28 melanoma) of the same molecule?
Answer: 171 nM

Question: And the TGI (SK-MEL-28 melanoma)?
Answer: 309 nM

Question: What about the GI50 (UACC-257 melanoma) of the same molecule?
Answer: 180 nM

Question: And the TGI (UACC-257 melanoma)?
Answer: 320 nM

Question: And the GI50 (HOP-62 NSCLC)?
Answer: 97.6 nM

Question: What about the TGI (HOP-62 NSCLC) of the same molecule?
Answer: 216 nM

Question: What about the GI50 (M14 melanoma) of the same molecule?
Answer: 170 nM

Question: And the TGI (M14 melanoma)?
Answer: 308 nM

Question: What about the GI50 (SN12C renal) of the same molecule?
Answer: 181 nM

Question: And the TGI (SN12C renal)?
Answer: 323 nM

Question: And the GI50 (SNB-75 CNS)?
Answer: 184 nM

Question: What about the TGI (SNB-75 CNS) of the same molecule?
Answer: 324 nM

Question: What about the GI50 (NCI-H460 NSCLC) of the same molecule?
Answer: 170 nM

Question: What about the TGI (NCI-H460 NSCLC) of the same molecule?
Answer: 314 nM

Question: And the GI50 (RXF 393 renal)?
Answer: 118 nM

Question: And the TGI (RXF 393 renal)?
Answer: 242 nM

Question: What about the GI50 (COLO 205 colon) of the same molecule?
Answer: 184 nM

Question: What about the TGI (COLO 205 colon) of the same molecule?
Answer: 325 nM

Question: And the GI50 (SK-MEL-5 melanoma)?
Answer: 184 nM

Question: What about the TGI (SK-MEL-5 melanoma) of the same molecule?
Answer: 359 nM

Question: What about the GI50 (HT29 colon) of the same molecule?
Answer: 184 nM

Question: What about the TGI (HT29 colon) of the same molecule?
Answer: 326 nM

Question: And the GI50 (SK-MEL-2 melanoma)?
Answer: 196 nM

Question: What about the TGI (SK-MEL-2 melanoma) of the same molecule?
Answer: 339 nM

Question: And the GI50 (MOLT-4 leukemia)?
Answer: 168 nM

Question: And the TGI (MOLT-4 leukemia)?
Answer: 306 nM

Question: What about the GI50 (SK-OV-3 ovarian) of the same molecule?
Answer: 169 nM

Question: And the TGI (SK-OV-3 ovarian)?
Answer: 308 nM

Question: And the GI50 (HCC-2998 colon)?
Answer: 166 nM

Question: What about the TGI (HCC-2998 colon) of the same molecule?
Answer: 303 nM

Question: And the GI50 (786-0 renal)?
Answer: 223 nM

Question: What about the TGI (786-0 renal) of the same molecule?
Answer: 525 nM

Question: What about the GI50 (EKVX NSCLC) of the same molecule?
Answer: 115 nM

Question: What about the TGI (EKVX NSCLC) of the same molecule?
Answer: 241 nM

Question: What about the GI50 (ACHN renal) of the same molecule?
Answer: 17.6 nM

Question: And the TGI (ACHN renal)?
Answer: 31.6 nM

Question: What about the GI50 (RPMI-8226 leukemia) of the same molecule?
Answer: 106 nM

Question: What about the TGI (RPMI-8226 leukemia) of the same molecule?
Answer: 226 nM

Question: What about the GI50 (MALME-3M melanoma) of the same molecule?
Answer: 179 nM

Question: And the TGI (MALME-3M melanoma)?
Answer: 321 nM

Question: What about the GI50 (UACC-62 melanoma) of the same molecule?
Answer: 182 nM

Question: And the TGI (UACC-62 melanoma)?
Answer: 323 nM

Question: What about the GI50 (NCI-H322M lung) of the same molecule?
Answer: 178 nM

Question: And the TGI (NCI-H322M lung)?
Answer: 320 nM

Question: And the GI50 (SF-268 CNS)?
Answer: 165 nM

Question: And the TGI (SF-268 CNS)?
Answer: 303 nM

Question: What about the GI50 (IGROV1 ovarian) of the same molecule?
Answer: 162 nM

Question: And the TGI (IGROV1 ovarian)?
Answer: 306 nM

Question: And the GI50 (SF-539 CNS)?
Answer: 174 nM

Question: And the TGI (SF-539 CNS)?
Answer: 317 nM

Question: And the GI50 (UO-31 renal)?
Answer: 16 nM

Question: What about the TGI (UO-31 renal) of the same molecule?
Answer: 29.8 nM

Question: What about the GI50 (DU-145 prostate) of the same molecule?
Answer: 177 nM

Question: And the TGI (DU-145 prostate)?
Answer: 318 nM

Question: And the GI50 (BT-549 breast)?
Answer: 179 nM

Question: And the TGI (BT-549 breast)?
Answer: 319 nM

Question: What about the GI50 (HL-60(TB) leukemia) of the same molecule?
Answer: 16.9 nM

Question: And the TGI (HL-60(TB) leukemia)?
Answer: 30.9 nM

Question: What about the GI50 (U251 glioblastoma) of the same molecule?
Answer: 189 nM

Question: And the TGI (U251 glioblastoma)?
Answer: 341 nM

Question: And the GI50 (T-47D breast)?
Answer: 155 nM

Question: And the TGI (T-47D breast)?
Answer: 290 nM

Question: What about the GI50 (LOX IMVI melanoma) of the same molecule?
Answer: 17.2 nM

Question: What about the TGI (LOX IMVI melanoma) of the same molecule?
Answer: 32 nM

Question: What about the GI50 (NCI/ADR-RES ovarian) of the same molecule?
Answer: 342 nM

Question: What about the TGI (NCI/ADR-RES ovarian) of the same molecule?
Answer: 1140 nM

Question: What about the GI50 (OVCAR-3 ovarian) of the same molecule?
Answer: 146 nM

Question: What about the TGI (OVCAR-3 ovarian) of the same molecule?
Answer: 281 nM

Question: And the GI50 (KM12 colon)?
Answer: 177 nM

Question: And the TGI (KM12 colon)?
Answer: 329 nM

Question: What about the GI50 (NCI-H226 lung) of the same molecule?
Answer: 168 nM

Question: And the TGI (NCI-H226 lung)?
Answer: 309 nM

Question: And the GI50 (OVCAR-4 ovarian)?
Answer: 17.9 nM

Question: And the TGI (OVCAR-4 ovarian)?
Answer: 34.4 nM

Question: And the GI50 (A498 renal)?
Answer: 1490 nM

Question: And the TGI (A498 renal)?
Answer: 3100 nM

Question: And the GI50 (MDA-MB-231 breast)?
Answer: 139 nM

Question: And the TGI (MDA-MB-231 breast)?
Answer: 270 nM

Question: And the GI50 (MDA-MB-435 melanoma)?
Answer: 183 nM

Question: And the TGI (MDA-MB-435 melanoma)?
Answer: 323 nM

Question: What about the GI50 (HCT-116 colon) of the same molecule?
Answer: 173 nM

Question: And the TGI (HCT-116 colon)?
Answer: 316 nM

Question: What about the GI50 (NCI-H522 lung) of the same molecule?
Answer: 172 nM

Question: And the TGI (NCI-H522 lung)?
Answer: 314 nM

Question: And the GI50 (CCRF-CEM leukemia)?
Answer: 82.5 nM

Question: And the TGI (CCRF-CEM leukemia)?
Answer: 205 nM
